From PMC9718777, “A growth selection system for the directed evolution of amine-forming or converting enzymes” (Nature Communications, 2022)

Legend:
[1] = biological target: T1, AtTA(RHC), (R)-selective amine transaminase (Aspergillus terreus, UniProt Q0C8G1, H55R/F115H/E117C); assay: specific activity of purified variant with pyruvate; asymmetric synthesis; assay type: biochemical
T1 construct: gene ATEG_10023

[2] = biological target: T2, AtTA(wt), (R)-selective amine transaminase (Aspergillus terreus, UniProt Q0C8G1); assay: specific activity of purified enzyme with pyruvate; assay type: biochemical
T2 construct: gene ATEG_10023
T2 sequence (Q0C8G1 1-325): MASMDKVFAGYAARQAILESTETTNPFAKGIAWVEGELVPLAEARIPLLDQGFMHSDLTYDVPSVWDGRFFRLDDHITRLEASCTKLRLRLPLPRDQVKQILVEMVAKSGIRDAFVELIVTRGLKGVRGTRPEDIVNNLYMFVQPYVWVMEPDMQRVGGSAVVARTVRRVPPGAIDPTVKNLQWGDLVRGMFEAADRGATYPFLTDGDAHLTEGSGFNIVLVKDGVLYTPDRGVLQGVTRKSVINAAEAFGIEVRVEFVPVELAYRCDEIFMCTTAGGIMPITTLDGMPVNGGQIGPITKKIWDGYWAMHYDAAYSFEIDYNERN

[3] = biological target: T2, AtTA(wt), (R)-selective amine transaminase; assay: specific activity (benchmark substrate); assay type: biochemical
[4] = biological target: T3, PcPAL(wt), phenylalanine ammonia lyase (Petroselinum crispum, UniProt P24481); assay: specific activity of purified enzyme; assay type: biochemical
T3 construct: gene PAL1

[5] = biological target: T4, PcPAL(AI), phenylalanine ammonia lyase (Petroselinum crispum, UniProt P24481, L134A/L256I); assay: specific activity of purified variant (amination of […]); assay type: biochemical
T4 construct: gene PAL1; purified variant of full-length PcPAL, recombinant in E. coli; MIO-dependent homotetramer

[6] = biological target: T3, PcPAL(wt), phenylalanine ammonia lyase; assay: specific activity; assay type: biochemical
[7] = tested on: C[C@H](N)c1cccc2ccccc12; assay: purified protein; assay type: biochemical, Microbacterium oxydans; settings: FAD active site
[8] = substrate: C[C@H](N)c1cccc2ccccc12; assay: purified protein; assay type: biochemical, Microbacterium oxydans; settings: FAD active site; remark: listed apart in the source

Molecule: CC(C)(C)OC(=O)N1CCC[C@@H](N)C1 [(R)-1, (R)-1-Boc-3-aminopiperidine]
- specific activity of purified variant with pyruvate; asymmetric synthesis [1]: 4.2 U/mg
- specific activity of purified enzyme with pyruvate [2]: 0.038 U/mg

Molecule: C[C@@H](N)c1ccccc1 [(R)-1-phenylethylamine]
- specific activity (benchmark substrate) [3]: 2.9 U/mg

Molecule: N[C@@H](Cc1cccc2ccccc12)C(=O)O [(S)-5, (S)-2-amino-3-(naphthalen-1-yl)propanoic acid]
- specific activity of purified enzyme [4]: 0.0027 U/mg

Molecule: O=C(O)/C=C/c1cccc2ccccc12 [compound 6, 6]
- specific activity of purified variant (amination of 6) [5]: 0.55 U/mg

Molecule: N[C@@H](Cc1ccccc1)C(=O)O [ʟ-phenylalanine]
- specific activity [6]: 0.147 U/mg

Molecule: CHAO(MVLM), cyclohexylamine oxidase (Microbacterium oxydans; L182V/M209L/T181M/Y304M)
- Km [7]: 2.2 mM

B1: CHAO(wt), cyclohexylamine oxidase (Microbacterium oxydans) (protein)
chain: THLNTYESVTPDPDVDVIIIGAGISGSAAAKALHDQGASVLVVEANDRIGGRTWTEQEGAPGGPIDYGGMFIGETHTHLIELGTSLGLEMTPSGKPGDDTYIVAGNVLRAPDDQLDPNLPFVPEFLSSLKALDELADSVGWDQPWASPNAAALDSKTVATWLAETIESEEVRRLHTVIVNTLLGADPYEVSLLYWAYYVSECEGIQSLMGTRDGAQWAWWFGGAAQVSWRIADAIGRDKFLLEWPVDRIEHDESGVTLFSGQRSLRARHIVIAMSPLAANQIRFEPALPTSRAQLQARAPMGRYYKVQARYPSSFWVEQGYSGALLDTEDVGVFLLDGTKPTDTLATLIGFIGGSNYDRWAAHTPQERERAFLDLLVKAFGPQAADPSYFHETDWTQQEWAKGGPVTYMPPGVLANFGAALRDPVGKVHFAGTEASFQWSGYMEGGVRAGQKAAAAIAEELERTANKGALV
- Km [8]: 4.5 mM
